According to US20180154170A1, “METHODS AND COMPOSITIONS FOR TREATING MENTAL DISORDERS AND CONDITIONS” (priority 2015, published 2018):

Assays:
[1] = test system: AMPA and NMDA receptors in the NAcc; experiment: Tail suspension test with optical reactivation of dentate gyrus positive memory cells, glutamate antagonists infused into the NAcc; format: in vivo; settings: stressed mice; bilateral infusion into NAcc (NBQX 22.3 mM, AP5 38.04 mM, 0.2 μl per hemisphere), 20 min before behavior; compared with saline
Procedure: Glutamate antagonists were bilaterally infused into the NAcc as follows: 0.2 μl per hemisphere of NBQX at a concentration of 22.3 mM to antagonize AMPA (α-amino-3-hydroxy-5-methyl-4-isoxazole propionic acid) receptors and 0.2 μl per hemisphere of AP5 at a concentration of 38.04 mM to antagonize NMDA (N-methyl-D-aspartate) receptors. Dopamine receptor antagonists were bilaterally infused into the NAcc as follows: 0.2 μl SCH23390 at a concentration of 6.16 mM to antagonize D1-like receptors and 0.2 μl raclopride at a concentration of 2.89 mM to antagonize D2-like receptors. A 26-gauge stainless steel double internal cannula (PlasticsOne) was used to bilaterally infuse each drug; the internal cannula was connected with a microsyringe pump by a PE20 tube to control the injection rate at 100 nl min^−1. The injection cannula was left connected for 5 min before removal to allow for diffusion. Finally, all behavior was performed 20 min following drug infusion.
Fibre optic implants on experimental mice were plugged into a patch cord before the tail suspension test. Each subject was hung by its tail from a bar 40 cm from the ground with a single piece of autoclave tape. […] An experimenter blind to each mouse condition and light treatment scored all the tail suspension videos by measuring the total time in seconds that each mouse spent struggling throughout the protocol.

[2] = test system: magnocellular and parvocellular BLA neurons; settings: bath application 10 μM; cells clamped at 0 mV; 10 Hz train; n=6 magnocellular, n=6 parvocellular
Procedure: Male mice (mean-PND 45 days) were anesthetized by isoflurane and their brains were dissected. By using a vibratome (VT1000S, Leica) 300 μm-thick parasagittal slices containing the basolateral amygdala were prepared in oxygenated cutting solution at ˜4° C. Slices were then incubated at −23° C. in oxygenated artificial cerebrospinal fluid (ACSF). The cutting solution contained 3 mM KCl, 0.5 mM CaCl2, 10 mM MgCl2, 25 mMNaHCO3, 1.2 mM NaHPO4, 10 mM d-glucose, 230 mM sucrose, saturated with 95% O/5% CO2 (pH 7.3, osmolarity 340 mOsm). […]
Whole-cell recordings in current-clamp or voltage-clamp mode were performed by using an infrared differential interference contrast microscope (BX51, Olympus) with a water immersion 40× objective (N.A. 0.8), and equipped with four automatic manipulators (Luigs & Neumann) and a CCD camera (Orca R2, Hamamatsu). […] Access resistance was monitored throughout the duration of the experiment and data acquisition was suspended whenever the resting membrane potential was depolarized above −50 mV or the access resistance was beyond 20 MΩ. […]
Optogenetic stimulation was achieved through a 460-nm LED light source (XLED1, Lumen Dynamics) driven by TTL input with a delay onset of 25 μs (subtracted off-line). […] In voltage-clamp cells were held at 0 mV for IPSC measurements, whereas, in current mode, EPSP and action potentials were measured at resting potentials. […]

[3] = reported in reference 28; cited from earlier work

| SMILES | behavioral effects of optically reactivating dentate gyrus cells labelled by a positive experience in the TST [1] | further results |
| --- | --- | --- |
| NC(CCCP(=O)(O)O)C(=O)O (stereo not shown) [AP5] | blocked | – |
| NS(=O)(=O)c1cccc2c1c([N+](=O)[O-])cc1nc(O)c(O)nc12 [NBQX] | blocked | – |
| COc1ccc(-c2ccc(=N)n(CCCC(=O)O)n2)cc1 [gabazine] | – | inhibitory postsynaptic currents (IPSCs) evoked by optogenetic stimulation of Ppp1r1b-ChR2+ and Rspo2-ChR2+ fibers [2]: blocked |
| CNC1(c2ccccc2Cl)CCCCC1=O (stereo not shown) [ketamine] | – | antidepressant effect in patients [3]: rapid effects in a subset of patients |
